How the values were obtained:
ER = settings: undefined if not mentioned; cited from earlier work
[1] = test system: K14E6/K14E7 double transgenic mice; test: Treatment of pre-existing cervical/vaginal cancer and dysplasia in estrogen-treated K14E6/K14E7 mice
Description: Experimental mice were generated by crossing K14E7 hemizygote and K14E6 homozygote mice. Female progenies were genotyped by PCR and a slow-releasing 17β-estradiol (E2) tablet (0.05 mg/60 days) (Innovative Research of America) was inserted subcutaneously under the dorsal skin every two months beginning at 4-6 weeks of age. After 6-month treatment with E2, one group of mice was sacrificed immediately to evaluate cancer phenotypes (6M E2 group), another group was maintained for another month without further treatment (6M E2+1M without fulvestrant group), and the third group was treated with fulvestrant for a month (6M E2+1M with fulvestrant group).
Faslodex (50 mg/ml, human formulation of intramuscular injection of fulvestrant) was purchased from Astra Zeneca. Mice were subcutaneously injected with 0.15 ml (equivalent to 7.5 mg of fulvestrant) of Faslodex twice a week for a month (total of 9 injections).
Mice were subsequently injected with fulvestrant as described in Materials and Methods. Reproductive tracts were harvested, fixed in para-formaldehyde (PFA), and embedded in paraffin. Every tenth 5 μM section was stained with H&E and histopathologically scored to identify the worst grade of cervical/vaginal disease present in each animal. […] EVISTA® tablets were purchased from Eli Lilly and Company, which are human formulation of raloxifene (60 mg/tablet). Tablets were resuspended in phosphate buffered saline at a final concentration of 10 mg/ml. K14E6/K14E7 double transgenic mice were treated with E2 for 6 months and subsequently with raloxifene for a month by intraperitoneally injecting them with 0.15 ml of raloxifene suspension (equivalent to 1.5 mg) 5 days a week.

[2] = test system: CVX1 human cervical cancer cells (ERα-positive); test: Subcutaneous CVX1 tumors in nude mice; format: in vivo; settings: estrogen-treated nude mice, fulvestrant 7.5 mg s.c. twice a week, two-week treatment period
[3] = test system: CaSki cervical cancer cell line (ERα-negative); test: Subcutaneous CaSki tumors in nude mice; format: in vivo, human; settings: estrogen-treated nude mice, with fulvestrant 7.5 mg s.c. twice a week
[4] = test system: nontransgenic female mice; test: Uterine wet weight after one week of fulvestrant (dose finding); settings: two injections day 0 and day 3, uteri weighed day 7, normalized to body weight
Excerpt: The indicated dose was given to nontransgenic female mice by two injections at day 0 and day 3, and uteri were harvested and weighed at day 7. Uterine wet weight was normalized to body weight.

[5] = test system: K14E6/K14E7 double transgenic mice; test: Prevention of cervical/vaginal cancer in E2-treated K14E6/K14E7 mice (preventive fulvestrant)
Description: Mice. […] Experimental mice were generated by crossing K14E7 hemizygote and K14E6 homozygote mice. Female progenies were genotyped by PCR and a slow-releasing 17β-estradiol (E2) tablet (0.05 mg/60 days) (Innovative Research of America) was inserted subcutaneously under the dorsal skin every two months beginning at 4-6 weeks of age. After 6-month treatment with E2, one group of mice was sacrificed immediately to evaluate cancer phenotypes (6M E2 group), another group was maintained for another month without further treatment (6M E2+1M without fulvestrant group), and the third group was treated with fulvestrant for a month (6M E2+1M with fulvestrant group).
Fulvestrant treatment. Faslodex (50 mg/ml, human formulation of intramuscular injection of fulvestrant) was purchased from Astra Zeneca. Mice were subcutaneously injected with 0.15 ml (equivalent to 7.5 mg of fulvestrant) of Faslodex twice a week for a month (total of 9 injections).

[6] = 6M E2 + 1M fulvestrant 7.5 mg s.c. twice a week, 13 mice
[7] = 6M estrogen then fulvestrant for two weeks
[8] = 6M E2 + preventive fulvestrant (one month at the three-month time point), six-month endpoint
[9] = 6M E2 + preventive fulvestrant, six-month endpoint
[10] = 6M E2 + 1M raloxifene 1.5 mg i.p. 5 days a week

## COc1ccc(-c2sc3cc(O)ccc3c2Oc2ccc(OCCN3CCCCC3)cc2)cc1 [Arzoxifene]
ER
  Effect in cervix, vagina and endometrium: antagonist in endometrium

## CC/C(=C(/c1ccc(OCCN(C)C)cc1)c1cccc(O)c1)c1ccccc1 [Droloxifene]
ER
  Effect in cervix, vagina and endometrium: agonist in endometrium

## CC1=C(c2ccc(OC(=O)C(C)(C)C)cc2)[C@H](c2ccc(OCCN3CCCCC3)cc2)Oc2cc(OC(=O)C(C)(C)C)ccc21 [EM-800]
ER
  Effect in cervix, vagina and endometrium: antagonist in endometrium

## CC/C(=C(\c1ccc(I)cc1)c1ccc(OCCN2CCCC2)cc1)c1ccccc1 [Idoxifene]
ER
  Effect in cervix, vagina and endometrium: agonist in endometrium

## Oc1ccc2c(c1)CC[C@H](c1ccccc1)[C@@H]2c1ccc(OCCN2CCCC2)cc1 [Lasofoxifene]
ER
  Effect in cervix, vagina and endometrium: neutral in endometrium

## COc1ccc2c(c1)OC(C)(C)[C@@H](c1ccccc1)[C@@H]2c1ccc(OCCN2CCCC2)cc1 [Levormeloxifene]
ER
  Effect in cervix, vagina and endometrium: agonist in endometrium

## COc1ccc2c(c1)OC(C)(C)C(c1ccccc1)C2c1ccc(OCCN2CCCC2)cc1 (centres unmarked) [Ormeloxifene]
ER
  Effect in cervix, vagina and endometrium: antagonist in endometrium

## Cc1c(-c2ccc(O)cc2)n(Cc2ccc(OCCN3CCCCC3)cc2)c2ccc(O)cc12 [Pipendoxifene]
ER
  Effect in cervix, vagina and endometrium: antagonist in endometrium

## CC/C(=C(\c1ccccc1)c1ccc(OCCN(C)C)cc1)c1ccccc1 [Tamoxifen]
ER
  Effect in cervix, vagina and endometrium: agonist in cervix, vagina,

## CN(C)CCOc1ccc(/C(=C(/CCCl)c2ccccc2)c2ccccc2)cc1 [Toremifene]
ER
  Effect in cervix, vagina and endometrium: agonist in endometrium

## C[C@]12CC[C@@H]3c4ccc(O)cc4C[C@@H](CCCCCCCCC[S+]([O-])CCCC(F)(F)C(F)(F)F)[C@H]3[C@@H]1CC[C@@H]2O (some centres unmarked) [fulvestrant]
ER
  Effect in cervix, vagina and endometrium: antagonist in cervix, vagina,
[1]; [6]
  number of mice with CIN1 as worst state (cervix): 0 (0)
  number of mice with CIN2 as worst state (cervix): 0 (0)
  number of mice with CIN3 as worst state (cervix): 0 (0)
  number of mice with VIN1 as worst state (vagina): 0 (0)
  number of mice with VIN2 as worst state (vagina): 0 (0)
  number of mice with VIN3 as worst state (vagina): 0 (0)
  number of mice with cervical cancer: 1 (1)
  number of mice with no dysplasia (worst state of disease): 11
  number of mice with vaginal cancer: 1 (1)
[1]; 6M E2 + 1M with fulvestrant
  Average size of the largest tumor: 0.02 ± 0.05^ mm^2
  Tumor multiplicity, Cervix: 0.2 ± 0.5
  Tumor multiplicity, Vagina: 0.1 ± 0.3
[1]; 6M estrogen then fulvestrant for 1 month
  dysplastic lesions (CIN and VIN) in lower reproductive tract: absence of any grade of dysplastic lesions
[1]; [7]
  cancers in the lower reproductive tracts: still had cancers
  dysplastic lesions in lower reproductive tract: absent
[1]; fulvestrant-treated mice
  thickness of lower reproductive tract epithelia: 2-3 layers of cells
[1]; of 13 mice, one cervical, one vaginal cancer
  mice in which cancers persisted after one-month fulvestrant: 2
[2]
  CVX1 tumor growth: did not grow at all
[3]
  CaSki tumor growth: 4.7 fold
[4]; fulvestrant 10 mg/week
  decrease in uterine wet weight: 50%
[4]; fulvestrant 15 mg/week
  reduction in uterine wet weight: 70%
[5]; [8]
  # mice with no dysplasia or cancer, Cervix: 6
  # mice with no dysplasia or cancer, Vagina: 6
[5]; [9]
  # mice w/ dysplasia only, CIN1: 0 (0)
  # mice w/ dysplasia only, CIN2: 0 (0)
  # mice w/ dysplasia only, CIN3: 0 (0)
  # mice w/ dysplasia only, VIN1: 0 (0)
  # mice w/ dysplasia only, VIN2: 0 (0)
  # mice w/ dysplasia only, VIN3: 0 (0)
  # mice w/cancer and dysplasia, Cervix: 0 (0)
  # mice w/cancer and dysplasia, Vagina: 0 (0)
  mice w/cancer and dysplasia (%), Cervix: 0 (0) %
  mice w/cancer and dysplasia (%), Vagina: 0 (0) %
[5]; fulvestrant for one month at the three-month time point of E2 treatment
  cervical disease at the six-month endpoint: neither CIN nor cervical cancer

## O=C(c1ccc(OCCN2CCCCC2)cc1)c1c(-c2ccc(O)cc2)sc2cc(O)ccc12 [raloxifene]
ER
  Effect in cervix, vagina and endometrium: neutral in endometrium
[1]; [10]
  # mice w/ dysplasia only, CIN1: 0 (0)
  # mice w/ dysplasia only, CIN2: 0 (0)
  # mice w/ dysplasia only, CIN3: 0
  # mice w/ dysplasia only, VIN1: 0 (0)
  # mice w/ dysplasia only, VIN2: 0 (0)
  # mice w/ dysplasia only, VIN3: 1
  # mice w/cancer and dysplasia, Cervix: 0 (0)
  # mice w/cancer and dysplasia, Vagina: 0 (0)
  # mice with no dysplasia or cancer, Cervix: 7
  # mice with no dysplasia or cancer, Vagina: 6
  mice w/cancer and dysplasia (%), Cervix: 0 (0) %
  mice w/cancer and dysplasia (%), Vagina: 0 (0) %
[1]; 6M E2 then raloxifene 1.5 mg i.p. 5 days a week for a month
  regression of cervical and vaginal disease including cancers: complete regression

Reference: patent US9889101B2, “Therapeutic treatment of cancer and dysplasia of the cervix or vagina using estrogen antagonists” (Wisconsin Alumni Research Foundation, priority 2009, dated 2018)
